# Results as given in patent publication US20240246932A1 (Merck Sharp & Dohme LLC, priority 2021, published 2024).
# Biological target: human NaV 1.8 channels stably expressed in HEK 293 cells (Homo sapiens (Human), UniProt Q9Y5Y9)
# Assay: Nav1.8 Qube automated patch-clamp assay
# Assay type: cell-based
# Conditions: human NaV1.8 in HEK 293 cells, whole-cell voltage clamp, room temperature; read-out: IC50 values (nM) for Examples in the Nav1.8 Qube Assay
# Method in brief: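 Whole-cell voltage clamp at room temperature on HEK293 cells; from −90 mV, a 10 s 1 Hz train of 20 ms pulses to 10 mV (repolarising to −67 mV) was applied. Peak currents at pulses 1 and 10 gave resting- and inactivated-state inhibition; IC50 fitted by Hill equation. Internal CsF/CsCl buffer.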
# Chain of human NaV 1.8 channels stably expressed in HEK 293 cells (Q9Y5Y9 whole entry): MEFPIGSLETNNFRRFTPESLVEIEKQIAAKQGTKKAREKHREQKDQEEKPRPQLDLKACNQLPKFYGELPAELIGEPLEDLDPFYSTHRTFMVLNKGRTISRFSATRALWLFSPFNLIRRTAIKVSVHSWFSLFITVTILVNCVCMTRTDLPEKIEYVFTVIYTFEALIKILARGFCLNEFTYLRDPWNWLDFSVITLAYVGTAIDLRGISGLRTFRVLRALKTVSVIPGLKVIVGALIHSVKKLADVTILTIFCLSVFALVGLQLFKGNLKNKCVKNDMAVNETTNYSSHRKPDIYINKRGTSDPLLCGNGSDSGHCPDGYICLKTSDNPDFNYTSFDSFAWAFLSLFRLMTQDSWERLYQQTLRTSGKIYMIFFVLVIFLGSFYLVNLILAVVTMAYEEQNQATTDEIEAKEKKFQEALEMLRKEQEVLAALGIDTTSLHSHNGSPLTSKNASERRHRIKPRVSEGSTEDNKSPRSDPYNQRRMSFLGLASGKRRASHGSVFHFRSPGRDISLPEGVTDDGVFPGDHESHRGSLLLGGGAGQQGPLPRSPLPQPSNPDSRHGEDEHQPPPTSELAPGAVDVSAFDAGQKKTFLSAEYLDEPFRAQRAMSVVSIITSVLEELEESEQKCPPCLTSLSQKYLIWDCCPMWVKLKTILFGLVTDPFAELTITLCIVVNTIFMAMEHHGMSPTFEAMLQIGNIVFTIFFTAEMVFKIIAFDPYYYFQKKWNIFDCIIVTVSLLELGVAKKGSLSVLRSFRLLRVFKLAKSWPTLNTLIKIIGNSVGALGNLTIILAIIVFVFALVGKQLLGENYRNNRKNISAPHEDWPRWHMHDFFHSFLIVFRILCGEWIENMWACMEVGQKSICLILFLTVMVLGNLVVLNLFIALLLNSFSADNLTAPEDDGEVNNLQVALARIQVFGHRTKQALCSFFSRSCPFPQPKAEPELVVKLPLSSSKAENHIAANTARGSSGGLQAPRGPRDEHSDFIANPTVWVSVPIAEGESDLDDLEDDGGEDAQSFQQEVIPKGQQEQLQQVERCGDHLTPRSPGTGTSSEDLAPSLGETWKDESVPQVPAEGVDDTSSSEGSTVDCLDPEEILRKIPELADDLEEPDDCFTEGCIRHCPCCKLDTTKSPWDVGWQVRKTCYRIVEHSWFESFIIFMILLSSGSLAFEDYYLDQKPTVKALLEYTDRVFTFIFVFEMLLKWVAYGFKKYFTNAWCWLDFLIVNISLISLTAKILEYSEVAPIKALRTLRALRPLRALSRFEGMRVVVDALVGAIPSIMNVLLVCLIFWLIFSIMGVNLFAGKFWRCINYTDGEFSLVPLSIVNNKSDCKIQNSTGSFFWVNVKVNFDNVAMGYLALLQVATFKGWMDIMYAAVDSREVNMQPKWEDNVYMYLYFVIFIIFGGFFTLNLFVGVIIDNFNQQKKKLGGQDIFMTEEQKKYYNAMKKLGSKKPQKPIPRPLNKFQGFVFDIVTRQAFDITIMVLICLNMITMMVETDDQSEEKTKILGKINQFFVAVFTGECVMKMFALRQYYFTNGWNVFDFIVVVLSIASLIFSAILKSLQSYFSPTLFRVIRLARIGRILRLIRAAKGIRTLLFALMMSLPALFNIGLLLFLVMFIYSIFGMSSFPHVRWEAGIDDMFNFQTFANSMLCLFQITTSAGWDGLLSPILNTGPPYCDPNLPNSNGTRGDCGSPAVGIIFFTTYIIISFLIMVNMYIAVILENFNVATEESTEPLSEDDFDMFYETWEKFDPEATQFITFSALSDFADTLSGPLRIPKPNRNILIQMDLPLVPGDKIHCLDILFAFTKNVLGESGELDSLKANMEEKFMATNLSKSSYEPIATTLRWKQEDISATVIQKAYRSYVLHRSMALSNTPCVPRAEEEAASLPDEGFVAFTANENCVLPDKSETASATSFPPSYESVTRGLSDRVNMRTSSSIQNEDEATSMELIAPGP
row,Structure (SMILES),IC50
1,"C[C@@H]1C(=O)NCCN1C(=O)NC(c1ccc(F)c(Cl)c1)c1ccc(Cl)c(C(F)(F)F)n1 (single isomer, unassigned) [Example 79, (2R)-N-((R or S)-(3-chloro-4-fluoro-phenyl)(5-chloro-6-(trifluoromethyl)pyridin-2-yl)methyl)-2-methyl-3-oxopiperazine-1-carboxamide]",0.58 nM
2,"O=C1CN(C(=O)NC(c2ccc(Cl)c(C(F)(F)F)n2)c2ccc(F)c(Cl)c2F)CCN1 (single isomer, unassigned) [Example 78A, N-((R or S)-(3-chloro-2,4-difluorophenyl)(5-chloro-6-(trifluoro-methyl)pyridin-2-yl)methyl)-3-oxopiperazine-1-carboxamide]",15.3 nM
3,"O=C1NCCN(C(=O)NC(c2cnc(C(F)(F)F)nc2)c2ccc(F)c(Cl)c2F)C1C1CC1 (single isomer, unassigned) [Example 41B, N-((R or S)-(3-chloro-2,4-difluorophenyl)(2-(trifluoromethyl)pyrimidin-5-yl)methyl)-(S or R)-2-cyclopropyl-3-oxopiperazine-1-carboxamide]",4.94 nM
4,"C[C@@H]1C(=O)NCCN1C(=O)NC(c1ccc(C(F)(F)F)nc1)c1ccc(F)c(Cl)c1F (single isomer, unassigned) [Example 15A]",4.74 nM
5,"C[C@@H]1C(=O)NCCN1C(=O)NC(c1ccc(Cl)cc1)c1ccc(OCC(F)(F)F)nc1 (single isomer, unassigned) [Example 5A, (2R)-N-((R or S)-(4-chlorophenyl)(6-(2,2,2-trifluoro-ethoxy)pyridin-3-yl)methyl)-2-methyl-3-oxopiperazine-1-carboxamide]",17.6 nM
6,"C[C@@H]1C(=O)NCCN1C(=O)NC(c1ccc(C(C)(F)F)nc1)c1ccc(F)c(Cl)c1F (single isomer, unassigned) [Example 75B]",2.95 nM
7,"C[C@@H]1CN(C(=O)NC(c2ccc(F)c(Cl)c2)c2cccc(C(F)(F)F)n2)CC(=O)N1 (single isomer, unassigned) [Example 46B, (3R)-N-((S or R)-(3-chloro-4-fluoro-phenyl)(6-(trifluoro-methyl)pyridin-2-yl)methyl)-3-methyl-5-oxopiperazine-1-carboxamide]",506 nM
8,"C[C@@H]1C(=O)NCCN1C(=O)NC(c1ccc(OCC(F)(F)F)nc1)c1ccc(F)c(C(F)(F)F)n1 (single isomer, unassigned) [Example 50B, (2R)-N-((S or R)-(5-fluoro-6-(trifluoro-methyl)pyridin-2-yl)(6-(2,2,2-trifluoro-ethoxy)pyridin-3-yl)methyl)-2-methyl-3-oxopiperazine-1-carboxamide]",8.55 nM
9,"CC(C)C1C(=O)NCCN1C(=O)NC(c1ccc(C(F)(F)F)nc1)c1ccc(F)c(Cl)c1F (single isomer, unassigned) [Example 39B, N-((R or S)-(3-chloro-2,4-difluorophenyl)(6-(trifluoromethyl)pyridin-3-yl)methyl)-(S or R)-2-isopropyl-3-oxo-piperazine-1-carboxamide]",15.2 nM
10,"C[C@@H]1C(=O)NCCN1C(=O)NC(c1ccc(F)c(Cl)c1)c1cc(C(F)(F)F)nn1C (single isomer, unassigned) [Example 86A, (2R)-N-((R or S)-(3-chloro-4-fluoro-phenyl)(1-methyl-3-(trifluoro-methyl)-1H-pyrazol-5-yl)methyl)-2-methyl-3-oxopiperazine-1-carboxamide]",3.59 nM
11,"C[C@@H]1C(=O)NCCN1C(=O)NC(c1ccc(OC(F)(F)F)cc1)c1ccc(F)c(C(F)(F)F)n1 (single isomer, unassigned) [Example 55B, (2R)-N-((S or R)-(5-fluoro-6-(trifluoro-methyl)pyridin-2-yl)(4-(trifluoromethoxy)phenyl)methyl)-2-methyl-3-oxopiperazine-1-carboxamide]",15.7 nM
12,"C[C@@H]1C(=O)NCCN1C(=O)NC(c1ccnc(OCC(F)(F)F)c1)c1ccc(F)c(Cl)c1 (single isomer, unassigned) [Example 71A, (2R)-N-((R or S)-(3-chloro-4-fluorophenyl)(2-(2,2,2-trifluoro-ethoxy)pyridin-4-yl)methyl)-2-methyl-3-oxopiperazine-1-carboxamide]",82.6 nM
13,"C[C@@H]1C(=O)NCCN1C(=O)NC(c1ccc(OC(F)(F)F)cc1)c1cc(C(F)(F)F)n[nH]1 (single isomer, unassigned) [Example 87A, (2R)-2-methyl-3-oxo-N-((R or S)-(4-(trifluoromethoxy)phenyl)(3-(trifluoromethyl)-1H-pyrazol-5-yl)methyl)piperazine-1-carboxamide]",124 nM
